Earlier results, collected in paper PMC5796656 (Journal of the American Chemical Society, 2015).

Conditions: ref [26]

τM: 243 ns
Compound: O=C([O-])CN1CCN(CC(=O)[O-])CCN(CC(=O)[O-])CCN(CC(=O)[O-])CC1.[Gd+3] [GdDOTA]
